Where two headings read alike, the source gives them in different places.
How the values were obtained:
[1] = system: CAPAN-1 (a BRCA-2-mutated pancreatic cancer cell line); experiment: Cell proliferation assay, three-day, CellTiter-Glo, CAPAN-1; assay type: cell-based
Method: (§1) A three-day assay was conducted. A cell suspension was prepared. Cell density was counted by an automated cell counter and then diluted to the required density, according to seeding density. 50 μL cells were seeded into 384-well plate in growth medium according to the plate map. The cells were incubated at 37 °C, 5% CO2 overnight.
(§2) 200× compound solution in DMSO was prepared and diluted with growth medium to 26× final concentration by addition of 26 μL 200× compounds to 174 μL growth medium. Then 2 μL of diluted compound solution was added to cells and the cell was incubated at 37 °C, 5% CO2 for 72 h.
(§3) The assay plate was equilibrated to room temperature prior to measurement. 15 μL of CellTiter-Glo Reagent was added into each well and the contents were mixed for 2 min on an orbital shaker to induce cell lysis. The cells were incubated at room temperature for 60 min to stabilize luminescent signal. Luminescence was recorded on the Envision system.

PARP-2 = biological target: T1, PARP-2 (Homo sapiens, UniProt Q9UGN5); experiment: PARP-2 inhibition assay (PARP-2 Chemiluminescent Assay Kit, BPS Bioscience); assay type: biochemical
T1 construct: purchased BPS Bioscience 80552
T1 sequence (Q9UGN5 whole entry): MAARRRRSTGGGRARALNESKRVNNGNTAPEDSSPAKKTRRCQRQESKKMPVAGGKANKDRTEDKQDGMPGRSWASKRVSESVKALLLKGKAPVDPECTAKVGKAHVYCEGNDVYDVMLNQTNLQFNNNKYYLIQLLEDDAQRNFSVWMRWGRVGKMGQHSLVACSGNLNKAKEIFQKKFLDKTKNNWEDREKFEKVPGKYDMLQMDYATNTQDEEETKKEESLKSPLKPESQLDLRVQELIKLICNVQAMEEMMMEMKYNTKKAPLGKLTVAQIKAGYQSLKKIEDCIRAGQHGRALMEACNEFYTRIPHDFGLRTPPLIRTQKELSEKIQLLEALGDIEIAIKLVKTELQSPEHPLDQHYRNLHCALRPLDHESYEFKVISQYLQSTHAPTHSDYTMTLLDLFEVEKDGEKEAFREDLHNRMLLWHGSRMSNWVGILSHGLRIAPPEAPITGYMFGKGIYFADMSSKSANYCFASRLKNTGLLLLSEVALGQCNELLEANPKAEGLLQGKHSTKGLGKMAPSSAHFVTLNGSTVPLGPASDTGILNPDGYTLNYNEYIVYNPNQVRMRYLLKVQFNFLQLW
Method: (§4) The PARP-1 and PARP-2 inhibition assays were performed in outsourcing, by a CRO company, Shanghai Medicilon Inc. (Shanghai, China). […] Briefly, PARP-1 or PARP-2 biotinylated substrate was incubated with compounds or solvent control at varying concentrations and an assay buffer containing the PARP-1 or PARP-2 enzyme.

[2] = system: MDA-MB-436 (a BRCA-1-mutated breast cancer cell line); experiment: Cell proliferation assay, three-day, CellTiter-Glo, MDA-MB-436; assay type: cell-based; conditions: for IC50 / inhibition at 0.00508 µM / inhibition at 0.0152 µM / inhibition at 0.0457 µM / inhibition at 0.41 µM / inhibition at 1.23 µM / inhibition at 3.7 µM / inhibition at 11.11 µM / inhibition at 33.33 µM / inhibition at 100 µM: Homo sapiens
Method: as §1, §2, §3

PARP-1 = biological target: T2, PARP-1 (Homo sapiens, UniProt P09874); experiment: PARP-1 inhibition assay (PARP-1 Chemiluminescent Assay Kit, BPS Bioscience); assay type: biochemical
T2 construct: purchased BPS Bioscience 80569
T2 sequence (P09874 whole entry): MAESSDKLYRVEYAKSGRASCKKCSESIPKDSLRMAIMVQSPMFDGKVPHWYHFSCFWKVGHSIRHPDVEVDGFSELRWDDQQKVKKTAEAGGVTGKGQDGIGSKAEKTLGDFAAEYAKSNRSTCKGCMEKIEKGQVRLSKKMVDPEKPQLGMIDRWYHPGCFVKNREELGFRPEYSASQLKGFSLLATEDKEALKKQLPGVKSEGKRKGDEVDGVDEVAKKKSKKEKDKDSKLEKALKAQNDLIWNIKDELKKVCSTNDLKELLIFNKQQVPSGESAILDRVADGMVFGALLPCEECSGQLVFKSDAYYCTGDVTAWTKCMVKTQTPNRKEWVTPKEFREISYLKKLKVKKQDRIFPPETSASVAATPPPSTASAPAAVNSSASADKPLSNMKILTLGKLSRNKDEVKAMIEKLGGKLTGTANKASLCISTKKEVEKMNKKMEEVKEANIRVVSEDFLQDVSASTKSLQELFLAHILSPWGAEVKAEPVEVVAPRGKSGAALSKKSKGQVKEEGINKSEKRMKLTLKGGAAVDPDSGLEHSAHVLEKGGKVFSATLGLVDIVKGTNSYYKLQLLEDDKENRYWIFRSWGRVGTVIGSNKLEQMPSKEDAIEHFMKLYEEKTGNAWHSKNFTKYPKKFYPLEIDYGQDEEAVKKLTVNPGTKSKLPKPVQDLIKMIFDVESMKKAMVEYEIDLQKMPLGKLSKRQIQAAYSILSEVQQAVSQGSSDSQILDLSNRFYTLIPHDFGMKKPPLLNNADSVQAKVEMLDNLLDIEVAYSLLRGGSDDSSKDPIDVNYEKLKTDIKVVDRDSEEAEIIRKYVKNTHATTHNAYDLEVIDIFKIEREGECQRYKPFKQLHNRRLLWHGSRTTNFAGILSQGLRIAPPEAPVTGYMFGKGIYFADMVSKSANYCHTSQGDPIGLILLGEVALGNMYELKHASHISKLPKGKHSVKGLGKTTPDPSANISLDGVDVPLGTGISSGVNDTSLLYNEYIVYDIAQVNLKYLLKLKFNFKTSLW
Method: as §4

[3] = Homo sapiens, CAPAN-1, read-out: Inh % 1
[4] = Homo sapiens, CAPAN-1, read-out: Inh % 2

SMILES: NC(=O)c1cccc2[nH]c(C3CCN(CCC(O)c4ccccc4)C3)nc12 (centres unmarked) [Compound 5cg, 2-(1-(3-Hydroxy-3-phenylpropyl)pyrrolidin-3-yl)-1H-benzo[d]imi-dazole-4-carboxamide]
- LogIC50 ([1]; CAPAN-1, curve-fit output, Log (uM)): 2.199
- IC50 ([1]; Homo sapiens, CAPAN-1, 72 h, read-out: CAPAN-1 IC50 (μM)): > 100 µM
- inhibition at 0.00508 µM [1, 3]: 4.5%
- inhibition at 0.0152 µM [1, 3]: 16.3%
- inhibition at 0.0457 µM [1, 3]: 5.6%
- inhibition at 0.41 µM [1, 3]: 14.3%
- inhibition at 1.23 µM [1, 3]: 11.4%
- inhibition at 3.7 µM [1, 3]: 16.5%
- inhibition at 11.11 µM [1, 3]: 22%
- inhibition at 33.33 µM [1, 3]: 33.5%
- inhibition at 100 µM [1, 3]: 47.6%
- inhibition at 0.00508 µM [1, 4]: -5.2%
- inhibition at 0.0152 µM [1, 4]: -0.0618%
- inhibition at 0.0457 µM [1, 4]: 0.1%
- inhibition at 0.41 µM [1, 4]: 8.8%
- inhibition at 1.23 µM [1, 4]: 2.5%
- inhibition at 3.7 µM [1, 4]: 5.4%
- inhibition at 11.11 µM [1, 4]: -1.6%
- inhibition at 33.33 µM [1, 4]: 14%
- inhibition at 100 µM [1, 4]: 38.6%
- inhibition at 0.01 µM (PARP-2; read-out: 10 nM inhibition% PAPR-2): 6.45%
- inhibition at 0.01 µM (PARP-2; read-out: PARP-2 Inhibition % (10 nM)): 6.5%
- IC50 ([2]; MDA-MB-436): 74.1 µM
- IC50 ([2]; MDA-MB-436, 72 h): 74.1 µM
- IC50 ([2]; MDA-MB-436, 72 h, read-out: MDA-MB-436 IC50 (μM)): 74.1 µM
- inhibition at 0.00508 µM ([2]; MDA-MB-436, read-out: Inh % 1): 2.1%
- inhibition at 0.0152 µM ([2]; MDA-MB-436, read-out: Inh % 1): -3.5%
- inhibition at 0.0457 µM ([2]; MDA-MB-436, read-out: Inh % 1): -5.7%
- inhibition at 0.41 µM ([2]; MDA-MB-436, read-out: Inh % 1): -16.8%
- inhibition at 1.23 µM ([2]; MDA-MB-436, read-out: Inh % 1): -6%
- inhibition at 3.7 µM ([2]; MDA-MB-436, read-out: Inh % 1): -10.1%
- inhibition at 11.11 µM ([2]; MDA-MB-436, read-out: Inh % 1): 0.536%
- inhibition at 33.33 µM ([2]; MDA-MB-436, read-out: Inh % 1): 21.6%
- inhibition at 100 µM ([2]; MDA-MB-436, read-out: Inh % 1): 68%
- inhibition at 0.00508 µM ([2]; MDA-MB-436, read-out: Inh % 2): -5%
- inhibition at 0.0152 µM ([2]; MDA-MB-436, read-out: Inh % 2): -7%
- inhibition at 0.0457 µM ([2]; MDA-MB-436, read-out: Inh % 2): -13.4%
- inhibition at 0.41 µM ([2]; MDA-MB-436, read-out: Inh % 2): -9.8%
- inhibition at 1.23 µM ([2]; MDA-MB-436, read-out: Inh % 2): -9.1%
- inhibition at 3.7 µM ([2]; MDA-MB-436, read-out: Inh % 2): -17.7%
- inhibition at 11.11 µM ([2]; MDA-MB-436, read-out: Inh % 2): -6.9%
- inhibition at 33.33 µM ([2]; MDA-MB-436, read-out: Inh % 2): 10.8%
- inhibition at 100 µM ([2]; MDA-MB-436, read-out: Inh % 2): 46.7%
- LogIC50 ([2]; MDA-MB-436, curve fit on Log (uM) concentrations): 1.87
- Top ([2]; MDA-MB-436, curve fit parameter (Inh %), '= 100.0' is a constrained value): = 100.0
- inhibition at 0.01 µM (PARP-1; read-out: 10 nM inhibition% PAPR-1): -2.11%
- inhibition at 0.01 µM (PARP-1; read-out: PARP-1 Inhibition % (10 nM)): -2.1%

— PMC6572064, “Discovery of 2-(1-(3-(4-Chloroxyphenyl)-3-oxo- propyl)pyrrolidine-3-yl)-1H-benzo[d]imidazole-4-carboxamide: A Potent Poly(ADP-ribose) Polymerase (PARP) Inhibitor for Treatment of Cancer” (Molecules, 2019)
